From article PMC11813896, “Bis(7)-harmine derivatives as potential multi-target anti-Alzheimer agents” (Frontiers in Chemistry, 2025) come the findings set out here.

The target in one test is hAChE (Homo sapiens, UniProt P22303). Put plainly: biochemical. As to conditions: for inhibition at 1 µM: compound at 1 μM, read-out: inhibition of hAChE in primary screening; for IC50: Mean ± SD from 3-5 assays, read-out: IC50 (nM) for cholinesterase hAChE. The procedure: 50 μL of hAChE (0.02 unit/mL) or hBChE (0.02 unit/mL) were incubated with 10 μL of the compound in 96-well plates at 37°C for 6 min. Subsequently, 30 μL of a substrate solution containing acetylthiocholine iodide (ATCI) or butyrylthiocholine iodide (BTCI) at a concentration of 0.01 M was added, and the mixture was further incubated at 37°C for an additional duration of 12 min.
Sequence of hAChE (P22303 32-614): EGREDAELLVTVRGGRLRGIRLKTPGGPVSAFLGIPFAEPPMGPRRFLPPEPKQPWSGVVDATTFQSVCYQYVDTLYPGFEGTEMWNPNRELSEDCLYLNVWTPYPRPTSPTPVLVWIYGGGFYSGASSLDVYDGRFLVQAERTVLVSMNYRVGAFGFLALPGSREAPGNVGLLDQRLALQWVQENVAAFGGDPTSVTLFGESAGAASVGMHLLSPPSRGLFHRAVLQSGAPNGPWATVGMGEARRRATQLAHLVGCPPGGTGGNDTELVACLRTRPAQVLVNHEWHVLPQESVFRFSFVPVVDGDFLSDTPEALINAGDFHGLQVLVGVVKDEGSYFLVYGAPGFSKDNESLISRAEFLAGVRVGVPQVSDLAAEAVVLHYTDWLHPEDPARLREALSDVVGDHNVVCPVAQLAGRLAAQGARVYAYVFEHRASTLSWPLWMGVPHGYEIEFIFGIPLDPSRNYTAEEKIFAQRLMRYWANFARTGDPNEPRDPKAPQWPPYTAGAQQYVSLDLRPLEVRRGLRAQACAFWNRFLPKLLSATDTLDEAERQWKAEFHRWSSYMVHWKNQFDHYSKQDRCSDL

The next test addresses hBuChE (Homo sapiens, UniProt P06276). Put plainly: Ellman's assay, hBuChE inhibition. Type of test: biochemical. As to conditions: for inhibition at 1 µM: compound at 1 μM, read-out: inhibition of hBuChE in primary screening; for IC50: Mean ± SD from 3-5 assays, read-out: IC50 (nM) for cholinesterase hBuChE. On the procedure: The Ellman’s assay was utilized to assess the inhibitory potential of novel bis(7)-harmine derivatives against hAChE and hBuChE. 50 μL of hAChE (0.02 unit/mL) or hBChE (0.02 unit/mL) were incubated with 10 μL of the compound in 96-well plates at 37°C for 6 min. Subsequently, 30 μL of a substrate solution containing acetylthiocholine iodide (ATCI) or butyrylthiocholine iodide (BTCI) at a concentration of 0.01 M was added, and the mixture was further incubated at 37°C for an additional duration of 12 min. Finally, the activity was measured by adding 150 μL of a solution containing 5,5′−dithiobis (2-nitrobenzoic acid) (DTNB) at a concentration of 0.01 M, followed by measuring absorbance at a wavelength of 415 nm using an Evolution 300 PC UV-Vis Spectrophotometer.

Another test deals with T1, recombinant hMAO-A (Homo sapiens, UniProt P21397).
T1 construct: purchased Sigma-Aldrich
T1 sequence (P21397 1-527): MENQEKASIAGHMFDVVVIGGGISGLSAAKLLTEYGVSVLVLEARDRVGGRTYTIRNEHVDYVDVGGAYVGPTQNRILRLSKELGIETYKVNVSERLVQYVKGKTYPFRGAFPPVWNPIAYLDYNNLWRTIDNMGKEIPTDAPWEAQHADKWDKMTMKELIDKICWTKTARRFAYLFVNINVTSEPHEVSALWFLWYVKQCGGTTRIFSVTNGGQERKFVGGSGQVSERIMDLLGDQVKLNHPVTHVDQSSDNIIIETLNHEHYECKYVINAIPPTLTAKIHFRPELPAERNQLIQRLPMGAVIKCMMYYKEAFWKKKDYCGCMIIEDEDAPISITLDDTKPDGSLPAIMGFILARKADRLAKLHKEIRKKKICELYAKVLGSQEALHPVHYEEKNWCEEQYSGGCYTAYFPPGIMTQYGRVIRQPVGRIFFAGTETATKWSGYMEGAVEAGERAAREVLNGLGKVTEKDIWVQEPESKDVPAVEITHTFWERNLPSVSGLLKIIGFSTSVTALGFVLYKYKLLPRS
Put plainly: biochemical. The settings on record: for inhibition at 1 µM: compound at 1 μM, read-out: inhibition of hMAO-A in primary screening; for IC50: mean ± SD, read-out: IC50 (nM) for monoamine oxidases hMAO-A. On the procedure: (§1) Briefly, the compounds under investigation and the reference inhibitor were preincubated with kynuramine at 37°C for 10 min in 96-well microplates. […] The enzymatic reactions were terminated by adding 400 μL of 2 N NaOH and 1,000 μL of water, followed by centrifugation at 16,000 g for 10 min. Subsequently, the concentrations of MAOs that produced 4-hydroxyquinoline were determined by measuring the fluorescence of the supernatant using a Varioskan Flash Multimode Reader ([…]) with excitation and emission wavelengths set at 310 nm and 400 nm, respectively. The IC50 values were calculated from dose-response curves and expressed as the mean ± standard deviation. These values were determined based on at least three independent experiments, each performed in triplicate.

In another test the target is T2, recombinant hMAO-B (Homo sapiens, UniProt P27338).
T2 construct: purchased Sigma-Aldrich
T2 sequence (P27338 1-520): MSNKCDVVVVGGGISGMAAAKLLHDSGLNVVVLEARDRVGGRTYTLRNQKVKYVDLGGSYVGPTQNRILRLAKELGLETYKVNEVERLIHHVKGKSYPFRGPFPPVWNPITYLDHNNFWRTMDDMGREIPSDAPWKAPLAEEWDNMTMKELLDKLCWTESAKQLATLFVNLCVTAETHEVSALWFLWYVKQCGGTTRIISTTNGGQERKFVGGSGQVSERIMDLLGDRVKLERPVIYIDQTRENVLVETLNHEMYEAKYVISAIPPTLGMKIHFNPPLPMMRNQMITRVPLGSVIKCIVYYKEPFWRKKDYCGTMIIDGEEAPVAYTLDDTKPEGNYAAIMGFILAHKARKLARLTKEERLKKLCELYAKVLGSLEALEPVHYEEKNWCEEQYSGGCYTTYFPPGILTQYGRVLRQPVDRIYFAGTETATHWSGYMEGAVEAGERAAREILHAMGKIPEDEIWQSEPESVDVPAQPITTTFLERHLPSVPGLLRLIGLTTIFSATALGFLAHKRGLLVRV
Put plainly: biochemical. As to conditions: for inhibition at 1 µM: compound at 1 μM, read-out: inhibition of hMAO-B in primary screening; for IC50: mean ± SD, read-out: IC50 (nM) for monoamine oxidases hMAO-B. The procedure: as §1

Another test has as its target Aβ 1−42 (Homo sapiens, UniProt P05067). Put plainly: Thioflavin T fluorescence assay, Aβ 1−42 self-aggregation. It is filed as biochemical. As to conditions: for inhibition percent ratio of self-induced Aβ 1-42 aggregation: compound at 20 μM. On the procedure:
The thioflavin T (Th-T) fluorescence assay was used to assess the inhibition of Aβ 1−42 self-aggregation. […] Subsequently, the reaction was terminated to a final volume of 200 μL using Th-T (10 μM) solution.

Sequence of Aβ 1−42 (P05067 672-713 limits assumed): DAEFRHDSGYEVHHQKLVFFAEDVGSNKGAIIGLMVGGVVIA
Sequence of hBuChE (P06276 29-602): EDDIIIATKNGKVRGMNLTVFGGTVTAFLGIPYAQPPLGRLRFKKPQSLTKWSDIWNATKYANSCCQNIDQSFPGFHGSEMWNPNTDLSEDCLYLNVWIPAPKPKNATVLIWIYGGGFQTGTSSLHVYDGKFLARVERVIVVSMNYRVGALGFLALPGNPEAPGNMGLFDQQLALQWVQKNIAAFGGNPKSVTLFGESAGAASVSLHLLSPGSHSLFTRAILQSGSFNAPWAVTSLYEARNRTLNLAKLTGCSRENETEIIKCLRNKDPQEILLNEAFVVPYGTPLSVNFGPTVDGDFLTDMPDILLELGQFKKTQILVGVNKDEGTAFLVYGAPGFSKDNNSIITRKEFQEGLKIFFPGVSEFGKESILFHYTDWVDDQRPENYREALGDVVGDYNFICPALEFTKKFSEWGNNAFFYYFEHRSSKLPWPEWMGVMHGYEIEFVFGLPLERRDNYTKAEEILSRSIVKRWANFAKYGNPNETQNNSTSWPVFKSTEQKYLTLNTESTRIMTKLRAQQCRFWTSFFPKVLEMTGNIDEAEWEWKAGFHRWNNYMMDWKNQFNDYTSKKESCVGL

Usually inhibition stands for the relative decrease from the control value, in per cent. Turning to `Cc1nccc2c3ccc(OCCCCOc4ccc5c6ccnc(C)c6n(C)c5c4)cc3n(C)c12` [Compound 4a, 1,4-bis ((1,9-dimethyl-9H-pyrido [3,4-b]indol-7-yl)oxy)butane], the inhibition at 1 µM on hAChE is 36.3%; at hBuChE, 30.5%; at recombinant hMAO-A, 41.5%; on recombinant hMAO-B, 13.8%. Further, the “inhibition percent ratio of self-induced Aβ 1-42 aggregation” value (shortened to “inhibition percent ratio”) on Aβ 1−42 is 39.3%.

By IC50 is commonly meant the concentration at which inhibition is half-maximal. Regarding `CCn1c2cc(OCCCCOc3ccc4c5ccnc(C)c5n(CC)c4c3)ccc2c2ccnc(C)c21` [Compound 4b, 1,4-bis ((9-ethyl-1-methyl-9H-pyrido [3,4-b]indol-7-yl)oxy)butane], on hAChE, the “S.I. Selectivity index IC50(hBuChE)/IC50(hAChE)” value is greater than 9.9 and the IC50 came out at 101 ± 6.8 nM. For the same compound, on hBuChE, the inhibition at 1 µM was determined as 36.7%. Moreover, at recombinant hMAO-A, the “S.I. Selectivity index IC50(hMAO-B)/IC50(hMAO-A)” value is greater than 1.4 and the IC50 came out at 686 ± 43.5 nM. Further, at recombinant hMAO-B, the inhibition at 1 µM stood at 28.6%. Further, at Aβ 1−42, the “inhibition percent ratio” value worked out at 27.6%.

As for `CCCn1c2cc(OCCCCOc3ccc4c5ccnc(C)c5n(CCC)c4c3)ccc2c2ccnc(C)c21` [Compound 4c, 1,4-bis ((1-methyl-9-propyl-9H-pyrido [3,4-b]indol-7-yl)oxy)butane], the “S.I. Selectivity index IC50(hBuChE)/IC50(hAChE)” value on hAChE is 10.2. For the same compound, the IC50 on hAChE turned out to be 68 ± 5.1 nM; on hBuChE, 694 ± 43.2 nM. Moreover, the values for the inhibition at 1 µM at recombinant hMAO-A and on recombinant hMAO-B were 48.6% and 17.8%, respectively. Moreover, the “inhibition percent ratio” value on Aβ 1−42 turned out to be 33.2%.

As for `C=CCn1c2cc(OCCCCOc3ccc4c5ccnc(C)c5n(CC=C)c4c3)ccc2c2ccnc(C)c21` [Compound 4d, 1,4-bis ((9-allyl-1-methyl-9H-pyrido [3,4-b]indol-7-yl)oxy)butane], the inhibition at 1 µM on hAChE is 45.6%; on hBuChE, 32.9%; at recombinant hMAO-A, 49.3%; at recombinant hMAO-B it was 30.3%. On Aβ 1−42, the “inhibition percent ratio” value amounted to 35.5%.

As for `Cc1nccc2c3ccc(OCCCCCOc4ccc5c6ccnc(C)c6n(C)c5c4)cc3n(C)c12` [Compound 5a, 1,5-bis ((1,9-dimethyl-9H-pyrido [3,4-b]indol-7-yl)oxy)pentane], on hAChE, the “S.I. Selectivity index IC50(hBuChE)/IC50(hAChE)” value was 0.3 and the IC50 is 827 ± 41.5 nM. In addition, on hBuChE, the IC50 was 256 ± 15.7 nM. For the same compound, at recombinant hMAO-A, the “S.I. Selectivity index IC50(hMAO-B)/IC50(hMAO-A)” value is greater than 4.1 and the IC50 came to 241 ± 13.8 nM. Moreover, the inhibition at 1 µM at recombinant hMAO-B turned out to be 25.6%. The “inhibition percent ratio” value at Aβ 1−42 is recorded as 40.6%.

Take `CCn1c2cc(OCCCCCOc3ccc4c5ccnc(C)c5n(CC)c4c3)ccc2c2ccnc(C)c21` [Compound 5b, 1,5-bis ((9-ethyl-1-methyl-9H-pyrido [3,4-b]indol-7-yl)oxy)pentane]: the “S.I. Selectivity index IC50(hBuChE)/IC50(hAChE)” value at hAChE amounted to 8.1. Besides, the IC50 on hAChE was 115 ± 7.36 nM; at hBuChE, 928 ± 62.1 nM. The inhibition at 1 µM at recombinant hMAO-A was found to be 42.4%; on recombinant hMAO-B, 33.7%. Besides, on Aβ 1−42, the “inhibition percent ratio” value is reported as 31.8%.

For `CCCn1c2cc(OCCCCCOc3ccc4c5ccnc(C)c5n(CCC)c4c3)ccc2c2ccnc(C)c21` [Compound 5c, 1,5-bis ((1-methyl-9-propyl-9H-pyrido [3,4-b]indol-7-yl)oxy)pentane], on hAChE, the “S.I. Selectivity index IC50(hBuChE)/IC50(hAChE)” value is given as greater than 13.7. In addition, the IC50 on hAChE came to 73.8 ± 4.28 nM. In addition, the results for the inhibition at 1 µM on hBuChE, on recombinant hMAO-A and at recombinant hMAO-B were 45.6%, 39.5% and 27.5%, respectively. The “inhibition percent ratio” value on Aβ 1−42 amounted to 29.4%.

In the case of `C=CCn1c2cc(OCCCCCOc3ccc4c5ccnc(C)c5n(CC=C)c4c3)ccc2c2ccnc(C)c21` [Compound 5d, 1,5-bis ((9-allyl-1-methyl-9H-pyrido [3,4-b]indol-7-yl)oxy)pentane], at hAChE, the “S.I. Selectivity index IC50(hBuChE)/IC50(hAChE)” value is given as greater than 3.4. Also, the IC50 at hAChE turned out to be 288 ± 21.3 nM. For the same compound, the figures for the inhibition at 1 µM at hBuChE, at recombinant hMAO-A and on recombinant hMAO-B were 41.2%, 41.1% and 29.8%, respectively. The “inhibition percent ratio” value on Aβ 1−42 was 43.6%.

On to `Cc1nccc2c3ccc(OCCCCCCOc4ccc5c6ccnc(C)c6n(C)c5c4)cc3n(C)c12` [Compound 6a, 1,6-bis ((1,9-dimethyl-9H-pyrido [3,4-b]indol-7-yl)oxy)hexane], for which, at hAChE, the “S.I. Selectivity index IC50(hBuChE)/IC50(hAChE)” value is reported as 0.7. The IC50 at hAChE stood at 493 ± 30.3 nM; at hBuChE, 331 ± 21.5 nM; at recombinant hMAO-A, 123 ± 7.2 nM; on recombinant hMAO-B, 863 ± 61.3 nM; at Aβ 1−42 (Aβ 1-42 20 μM, 37°C, 24 h), 19.8 ± 1.1 µM. Moreover, the “S.I. Selectivity index IC50(hMAO-B)/IC50(hMAO-A)” value at recombinant hMAO-A is 7.1.

Turning to `CCn1c2cc(OCCCCCCOc3ccc4c5ccnc(C)c5n(CC)c4c3)ccc2c2ccnc(C)c21` [Compound 6b, 1,6-bis ((9-ethyl-1-methyl-9H-pyrido [3,4-b]indol-7-yl)oxy)hexane], the “S.I. Selectivity index IC50(hBuChE)/IC50(hAChE)” value on hAChE stood at 0.1. In addition, the IC50 turned out to be 652 ± 35.8 nM on hAChE, 86.8 ± 5.3 nM at hBuChE and 893 ± 59.3 nM at recombinant hMAO-A. The “S.I. Selectivity index IC50(hMAO-B)/IC50(hMAO-A)” value on recombinant hMAO-A is greater than 1.1. For the same compound, on recombinant hMAO-B, the inhibition at 1 µM came to 41.2%. The “inhibition percent ratio” value at Aβ 1−42 is on record as 40.2%.

As to `CCCn1c2cc(OCCCCCCOc3ccc4c5ccnc(C)c5n(CCC)c4c3)ccc2c2ccnc(C)c21` [Compound 6c, 1,6-bis ((1-methyl-9-propyl-9H-pyrido [3,4-b]indol-7-yl)oxy)hexane], on hAChE, the “S.I. Selectivity index IC50(hBuChE)/IC50(hAChE)” value is listed as 12.1. Also, the IC50 on hAChE stood at 82.1 ± 6.9 nM; at hBuChE, 994 ± 73.4 nM; at recombinant hMAO-A, 21 ± 1.18 nM; at recombinant hMAO-B, 529 ± 38.7 nM. Further, on recombinant hMAO-A, the “S.I. Selectivity index IC50(hMAO-B)/IC50(hMAO-A)” value was found to be 25.2. At Aβ 1−42, the “inhibition percent ratio” value is recorded as 35.8%.

Turning to `CCn1c2cc(OCCCCCCCOc3ccc4c5ccnc(C)c5n(CC)c4c3)ccc2c2ccnc(C)c21` [Compound 7b, 1,7-bis ((9-ethyl-1-methyl-9H-pyrido [3,4-b]indol-7-yl)oxy)heptane], on hAChE, the “S.I. Selectivity index IC50(hBuChE)/IC50(hAChE)” value is listed as greater than 2.6 and the IC50 was 386 ± 26.8 nM. Besides, the inhibition at 1 µM at hBuChE was 36.5%. On recombinant hMAO-A, the “S.I. Selectivity index IC50(hMAO-B)/IC50(hMAO-A)” value was determined as 0.5 and the IC50 came to 150 ± 12.4 nM. On recombinant hMAO-B, the IC50 stood at 79.8 ± 4.9 nM. Also, on Aβ 1−42, the “inhibition percent ratio” value is 29.6%.
